One compound from patent US20230099567A1, “COMPOSITION FOR TREATMENT, PREVENTION, OR AMELIORATION OF LYMPHEDEMA” (RAPPELER CO., LTD., priority 2020, published 2023) can be followed below.

In data set [1] the test system is LPS-induced TNFα production in mouse peritoneal macrophages. Nature of the data set: LPS-induced TNFα production in mouse peritoneal macrophages (ELISA). The data set is classed as cell-based. Particulars: Mus musculus, Peritoneal macrophage, 24 h, mouse peritoneal macrophages, 100 ng/ml LPS 24 h; measured twice, mean ± standard deviation; read-out: IC50, dose-dependent inhibition of TNFα production in macrophages. How it is done:
To isolate peritoneal macrophages, male Balb/c mice were intraperitoneally injected with 2 ml of 3.5% sterile thioglycolate (B D, Sparks, Md., USA) 4 days before being sacrificed. Mice were sacrificed by cervical dislocation, and peritoneal secretory cells were aseptically isolated through peritoneal washing with cold DMEM (HyClone, Logan, Utah, USA) containing 10% FBS (fetal bovine serum; HyClone) and 1% penicillin-streptomycin. After centrifugation, cells were resuspended and counted using a TC20 Cell Counter (Bio-Rad Laboratories, Hercules, Calif., USA). Peritoneal secretory cells were left in a 24-well plate overnight at 37° C., and non-adherent cells were removed. The cells were then stimulated with 100 ng/ml lipopolysaccharide (LPS) for 24 hours. The supernatant was collected during cytokine analysis, and the level of TNFα in the supernatant was measured using BD OptEIA mouse ELISA sets (BD Biosciences, San Diego, Calif., USA) according to the manufacturer's protocol. […] IC50 (μM) values were measured twice, respectively, and expressed as mean±standard deviation.

Data set [2] is described as follows: Physicochemical properties (pKa, logP, solubility). The source says:
Compound 1 is butein and the therapeutic effect on lymphedema thereof is disclosed in Korean Patent Publication No. 10-1533197 (published on Jul. 2, 2015).

The nature of data set [3]: Pharmacokinetic analysis in mice after I.V. and oral administration. The data set is classed as in vivo, mouse. Particulars: male CD-1 mice; for Cmax: read-out: Cmax (maximum plasma concentration). As for the experimental part:
Compounds were administered to 5-week-old male CD-1 mice through 1 mg/kg tail vein administration (administration volume of 5 mL/kg), 20 mg/kg oral administration, and 100 mg/kg oral administration, respectively. Three mice were used for each independent experiment. Blood samples were taken in an amount of 20 μL to 30 μL via the saphenous vein at 5, 15, 30, 60, 120, 180, 360, and 1440 minutes.
In addition, pharmacokinetic parameters were calculated from non-compartmental analysis using Win Non-lin.
In Table 3, T1/2 denotes the terminal half-life, Cmax denotes the maximum plasma concentration, AUC-O denotes the area under the plasma concentration-time curve from time zero to infinity, and indicates exposure concentration of whole blood, and BA represents bioavailability expressed as (AUCpo/AUCiv)×100. […] Cmax and AUC∞ are mean±SD values obtained from three male ICR mice. Regarding blood exposure during systemic circulation of the compound, the compound was orally administered at an amount of 100 mg/kg, and then, AUC (area under the curve) was measured, and the obtained measurements were compared.

Data set [4] concerns lymphedema induced in mice. Nature of the data set: Prophylactic effect on lymphedema formation, surgically induced murine lymphedema model (volume). Particulars: 7th day after surgery, oral administration 7 days before surgery, then once every two days, vs control group. The data set is classed as in vivo, mouse. As for the experimental part: All animal tests in the following examples were performed after obtaining approvals by the Institutional Animal Care and Use Committee (IACUC) of Sungkyunkwan University School of Medicine (Approval No.: […]-20150037). All methods were performed according to the approved guidelines. […] Briefly, major lymphatic sites including inguinal lymph nodes, popliteal lymph nodes, deep inguinal lymph nodes and femoral lymphatic vessels were removed, and the lower right leg of the mouse was limitedly cauterized under anesthesia.
Compounds 1, 7m, and 14a were each orally administered to mice for 7 days before surgical induction of lymphedema in mice.
On the other hand, in the control group, the compound 1 treatment group, the compound 7m treatment group, and the compound 14a treatment group, lymphedema was induced through surgery. After surgery, the compounds were administered once every two days.
The volume of lymphedema was measured on the 7th day after surgery, and the size of the lymphedema was recorded using a caliper ruler by a person who was blinded to the treatment status of the mice.

For the next data set, the system named is lymphedema tissue. Put plainly: Histological (H&E) analysis of lymphedema tissue of the right hind leg. Type of data set: in vivo. To be noted: 7th day after surgery, right hind leg of mouse. An excerpt: (§1) Tissue samples were collected on the 7th day after surgery to induce lymphedema at a location 15 mm-25 mm from the right leg of the mouse. The harvested tissue samples were fixed with 10% formalin solution, and the specimens were cut to a thickness of 5 μm. Sections were deparaffinized in 100% xylene, rehydrated with a series of 100% ethanol, 95% ethanol, 90% ethanol, 80% ethanol, and 70% ethanol, and washed with water. Sections were reacted with hematoxylin solution at room temperature. After washing in PBS, sections were stained with eosin at room temperature. Images were acquired by a Pannoramic viewer microscope (3[…] Ltd., Hungary). Prepared slides were incubated using anti-mouse PPARγ (Santa Cruz Biotechnology, USA) and Alexa Fluor 488 and DAPI (Life Technologies, USA). Samples were analyzed using a Nikon ECLIPSE 80i microscope (Nikon Instruments Inc., Japan).
In FIG. 3A, the scale bar of the upper panel is 500 μm, and the scale bar of the lower panel is 100 μm.
In FIG. 4A, the scale bar of the upper panel is 200 μm, and the scale bar of the lower panel is 100 μm.

The subject of the next data set is TNFα. Nature of the data set: mRNA expression of TNFα in lymphedema tissue. Type of data set: in vivo. To be noted: 7th day after surgery, mouse. An excerpt:
As a result, it was confirmed that the expression level of TNFα mRNA was decreased in the compound 1 treatment group and the compound 14a treatment group (with respect to the control group, *: P<0.05; with respect to compound 1, #: P<0.05).

A further data set has as its system PPARγ. Put plainly: Immunofluorescence staining of PPARγ in epidermal layer of lymphedema tissue. Type of data set: in vivo. To be noted: mouse.
Source text: as §1
In addition, peroxisome […] (PPARγ) is a major regulator of lipogenesis, and as shown in FIG. 4B showing the results of immunofluorescence staining, the distribution of PPARγ in the epidermal layer of lymphedema tissue after treatment with compound 1 and compound 14a was suppressed.

Data set [5] has as its system PPARγ and a target protein Fabp4. Nature of the data set: Expression of PPARγ and Fabp4 in lymphedema tissue (western blot, mRNA). To be noted: mouse. The data set is classed as in vivo. Background: In western blotting, separated proteins are transferred to a membrane and probed.
Where [6] appears, read: mouse, plasma, iv, I.V, 1 mg/Kg.
Setting [7] is: mouse, plasma, po, P.O, 20 mg/Kg.

In brackets after ≈: the same amount, converted by molar mass. Like-named read-outs stand apart in the source and are kept apart here.

Turning to `O=C(Oc1cc(O)ccc1C(=O)/C=C/c1ccc(O)c(O)c1)c1ccccc1` [compound 14a, (E)-2-(3-(3,4-dihydroxyphenyl)acryloyl)-5-hydroxyphenyl benzoate], the melting point (in general, the temperature, or range, at which the solid turns liquid) came out at 204.9 °C. For the same compound, the IC50 – broadly, the midpoint of a concentration-inhibition curve – in data set [1] was 14.6 ± 1.56 µM. Further, in data set [2], the “logP (partition coefficient)” value came out at 3.47. In addition, in data set [2] (water solubility, read-out: Solubility), the solubility (as a rule, the concentration that dissolves in the medium under given conditions) came to 136 µg/mL (≈ 361 µM). In data set [3] (I.V, 1 mg/Kg), the “T1/2 (terminal half-life)” value amounted to 81.6 min and the Tmax (in general, the time at which the peak concentration occurs) stood at 12 min. Besides, in data set [3] (P.O, 20 mg/Kg), the “T1/2 (terminal half-life)” value was determined as 34.2 min and the Tmax came out at 24 min. In data set [3] (P.O, 100 mg/Kg), the “Cmax (maximum plasma concentration)” value stood at 1600 ng/mL, the “T1/2 (terminal half-life)” value was 21 min and the Tmax worked out at 24 min. In addition, the “BA (bioavailability)” value in data set [3] (P.O, 100 mg/Kg, (AUCpo/AUCiv)×100) amounted to 7.5%. For the same compound, in data set [3] (setting [6]), the AUC(0-inf) (in general, the area under the concentration-time curve extrapolated to infinity) turned out to be 163 ng·h/mL and the Cmax came out at 110 ng/mL. Besides, in data set [3] (setting [7]), the AUC(0-inf) stood at 141 ng·h/mL and the Cmax amounted to 83 ng/mL. Besides, the bioavailability (in general, the share of a dose that reaches the circulation, judged against a reference dose that is usually intravenous) in data set [3] (mouse, plasma, po, P.O, 20 mg/Kg, (AUCpo/AUCiv)×100, read-out: BA (bioavailability)) turned out to be 4%. Further, the “volume of lymphedema reduced by” value in [4] is given as 70%. For the same compound, in the data set on lymphedema tissue, the “development of adipose tissue in the epidermal layer (H&E, FIG. 4A)” value is given as “inhibiting the development of adipose tissue in the epidermal layer”; the “neutrophil infiltration and epidermal layer of lymphedema tissue (H&E, FIG. 3A)” value is “decreased neutrophil infiltration and ameliorated the epidermal layer of lymphedema tissue”. Besides, in the data set with TNFα, the “expression level of TNFα mRNA in lymphedema tissue (FIG. 3B)” value is recorded as “decreased”. In the data set with PPARγ, the “distribution of PPARγ in the epidermal layer of lymphedema tissue (FIG. 4B)” value is on record as “suppressed”. In addition, the “levels of PPARγ and Fabp4 mRNA (FIG. 4D)” value in data set [5] (lymphedema tissue) is on record as “more significant efficacy even compared to compound 1”. For the same compound, in [5], the “expression of PPARγ and Fabp4 in lymphedema tissue (western blot, FIG. 4C)” value is recorded as “reduced the expression of PPARγ”.
